How the values were obtained:
Type in all cases: cell-based
human TLR9 = target: T1, human TLR9 (Homo sapiens, UniProt Q9NR96); test: TLR9 inhibition reporter assay (HEK-Blue cells, SEAP reporter, ODN2006 stimulation); details: HEK-Blue cells overexpressing human TLR9, SEAP reporter, ODN2006 5 nM
T1 construct: host or cells: HEK-Blue cells
T1 sequence (Q9NR96 26-1032): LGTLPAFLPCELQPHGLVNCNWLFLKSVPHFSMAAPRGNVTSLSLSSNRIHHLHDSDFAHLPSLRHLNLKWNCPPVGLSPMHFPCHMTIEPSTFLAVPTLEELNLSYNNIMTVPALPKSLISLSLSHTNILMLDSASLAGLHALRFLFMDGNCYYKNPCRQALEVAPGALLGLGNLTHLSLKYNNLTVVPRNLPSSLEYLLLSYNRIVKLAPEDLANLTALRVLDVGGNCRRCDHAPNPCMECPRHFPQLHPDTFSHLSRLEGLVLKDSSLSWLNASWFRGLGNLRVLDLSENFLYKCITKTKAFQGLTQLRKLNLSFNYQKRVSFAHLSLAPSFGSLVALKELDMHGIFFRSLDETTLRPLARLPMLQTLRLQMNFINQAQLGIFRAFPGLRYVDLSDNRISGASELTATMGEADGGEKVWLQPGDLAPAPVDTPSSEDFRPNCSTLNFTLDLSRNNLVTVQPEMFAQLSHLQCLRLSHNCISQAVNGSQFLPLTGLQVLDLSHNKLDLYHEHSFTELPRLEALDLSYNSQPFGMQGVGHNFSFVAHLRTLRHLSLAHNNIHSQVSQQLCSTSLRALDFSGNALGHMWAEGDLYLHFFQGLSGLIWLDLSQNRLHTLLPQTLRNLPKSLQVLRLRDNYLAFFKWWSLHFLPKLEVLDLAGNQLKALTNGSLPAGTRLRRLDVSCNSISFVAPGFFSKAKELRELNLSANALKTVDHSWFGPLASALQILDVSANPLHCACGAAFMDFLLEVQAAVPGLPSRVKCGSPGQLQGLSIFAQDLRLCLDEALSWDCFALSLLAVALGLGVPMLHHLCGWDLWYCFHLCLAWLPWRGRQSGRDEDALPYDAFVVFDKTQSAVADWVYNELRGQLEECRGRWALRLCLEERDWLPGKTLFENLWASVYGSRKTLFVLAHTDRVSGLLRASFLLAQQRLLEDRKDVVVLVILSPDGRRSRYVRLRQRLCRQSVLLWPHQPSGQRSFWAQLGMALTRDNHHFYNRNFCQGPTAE
In short: (§1)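 Dose–response from 0.05 nM to 50 μM was run in HEK-Blue human TLR7, TLR8 and TLR9 reporter cells. After 30 min at room temperature with compound, ligand was added (TLR7 gardiquimod 7.5 μM; TLR8 R848 15.9 μM; TLR9 ODN2006 5 nM) and SEAP measured next day, at 22 h.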

human TLR7 = target: T2, human TLR7 (Homo sapiens, UniProt Q9NYK1); test: TLR7 inhibition reporter assay (HEK-Blue cells, SEAP reporter, gardiquimod stimulation); details: HEK-Blue cells overexpressing human TLR7, SEAP reporter, gardiquimod 7.5 μM; read-out: TLR7 IC50
T2 construct: host or cells: HEK-Blue cells
T2 sequence (Q9NYK1 27-1049): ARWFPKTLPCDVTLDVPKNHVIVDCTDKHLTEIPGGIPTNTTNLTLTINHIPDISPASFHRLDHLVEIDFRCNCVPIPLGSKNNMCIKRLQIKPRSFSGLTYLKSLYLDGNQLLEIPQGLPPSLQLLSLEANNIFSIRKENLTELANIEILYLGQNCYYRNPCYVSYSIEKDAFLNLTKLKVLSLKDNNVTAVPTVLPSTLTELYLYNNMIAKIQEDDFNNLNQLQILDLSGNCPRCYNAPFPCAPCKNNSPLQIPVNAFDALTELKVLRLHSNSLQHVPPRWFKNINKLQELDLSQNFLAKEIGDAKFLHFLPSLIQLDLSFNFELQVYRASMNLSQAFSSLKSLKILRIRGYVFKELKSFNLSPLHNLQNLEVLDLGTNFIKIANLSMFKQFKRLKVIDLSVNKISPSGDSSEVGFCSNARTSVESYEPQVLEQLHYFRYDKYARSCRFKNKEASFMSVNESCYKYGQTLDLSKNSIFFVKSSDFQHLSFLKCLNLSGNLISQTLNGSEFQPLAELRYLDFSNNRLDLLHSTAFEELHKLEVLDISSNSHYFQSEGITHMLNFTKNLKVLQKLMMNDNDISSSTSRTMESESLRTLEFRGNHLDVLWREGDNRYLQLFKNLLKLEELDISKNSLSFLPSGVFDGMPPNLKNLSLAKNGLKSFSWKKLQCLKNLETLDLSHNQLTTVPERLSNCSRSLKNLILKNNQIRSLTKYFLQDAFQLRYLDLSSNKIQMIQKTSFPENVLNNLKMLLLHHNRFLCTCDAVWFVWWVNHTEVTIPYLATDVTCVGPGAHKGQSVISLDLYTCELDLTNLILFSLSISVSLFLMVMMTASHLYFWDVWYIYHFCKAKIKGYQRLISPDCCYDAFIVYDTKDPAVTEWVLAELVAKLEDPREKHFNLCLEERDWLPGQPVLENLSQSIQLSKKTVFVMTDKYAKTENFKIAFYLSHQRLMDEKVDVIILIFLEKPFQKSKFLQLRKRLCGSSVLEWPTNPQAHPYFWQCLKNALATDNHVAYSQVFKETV
In short: as §1

human TLR8 = target: T3, human TLR8 (Homo sapiens, UniProt Q9NR97); test: TLR8 inhibition reporter assay (HEK-Blue cells, SEAP reporter, R848 stimulation); details: HEK-Blue cells overexpressing human TLR8, SEAP reporter, R848 15.9 μM; read-out: TLR8 IC50
T3 construct: host or cells: HEK-Blue cells
T3 sequence (Q9NR97 27-1041): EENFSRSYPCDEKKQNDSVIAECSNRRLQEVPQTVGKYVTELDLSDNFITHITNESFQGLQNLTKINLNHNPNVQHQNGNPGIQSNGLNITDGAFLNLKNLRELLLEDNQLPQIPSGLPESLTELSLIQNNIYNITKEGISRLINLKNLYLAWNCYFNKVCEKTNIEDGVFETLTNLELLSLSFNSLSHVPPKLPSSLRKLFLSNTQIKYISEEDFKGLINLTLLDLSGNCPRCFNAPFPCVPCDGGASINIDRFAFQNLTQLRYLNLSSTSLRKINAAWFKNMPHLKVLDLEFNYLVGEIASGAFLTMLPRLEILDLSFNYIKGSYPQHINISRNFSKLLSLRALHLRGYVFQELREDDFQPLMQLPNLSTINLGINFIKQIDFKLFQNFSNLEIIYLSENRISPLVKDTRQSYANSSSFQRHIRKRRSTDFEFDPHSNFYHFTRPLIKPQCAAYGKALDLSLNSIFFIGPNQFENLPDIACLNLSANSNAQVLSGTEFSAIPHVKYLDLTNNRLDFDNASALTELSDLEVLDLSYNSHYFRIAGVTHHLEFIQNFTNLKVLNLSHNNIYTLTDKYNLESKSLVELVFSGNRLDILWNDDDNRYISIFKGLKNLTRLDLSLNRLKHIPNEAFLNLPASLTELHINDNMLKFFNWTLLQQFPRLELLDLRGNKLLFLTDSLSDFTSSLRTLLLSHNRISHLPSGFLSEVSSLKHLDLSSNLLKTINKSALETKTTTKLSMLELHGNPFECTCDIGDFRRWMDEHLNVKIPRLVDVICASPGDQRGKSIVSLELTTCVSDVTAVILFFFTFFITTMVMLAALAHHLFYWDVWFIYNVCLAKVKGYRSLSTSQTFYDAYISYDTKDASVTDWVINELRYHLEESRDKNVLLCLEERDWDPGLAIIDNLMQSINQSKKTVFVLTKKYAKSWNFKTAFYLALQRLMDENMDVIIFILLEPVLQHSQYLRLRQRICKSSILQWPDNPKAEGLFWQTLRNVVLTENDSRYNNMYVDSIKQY
In short: as §1

Row | Compound | IC50 (human TLR9) | IC50 (human TLR7) | IC50 (human TLR8)
1 | Cc1c(-c2[nH]c3sc(C4CCC(N5CC(O)(C(F)(F)F)C5)CC4)nc3c2C(C)C)cn(C)c(=O)c1C (single isomer, unassigned) [Example 267, 5-(2-(4-(3-hydroxy-3-(trifluoromethyl)azetidin-1-yl)cyclohexyl)-6-isopropyl-4H-pyrrolo[3,2-d]thiazol-5-yl)-1,3,4-trimethylpyridin-2(1H)-one] | > 50 µM | 0.0243 µM | 0.00716 µM
2 | Cc1c(-c2[nH]c3sc(C4CCC(N5CC(O)(C(F)(F)F)C5)CC4)nc3c2C(C)C)cn(C)c(=O)c1C (single isomer, unassigned) [Example 268, 5-(2-(4-(3-hydroxy-3-(trifluoromethyl)azetidin-1-yl)cyclohexyl)-6-isopropyl-4H-pyrrolo[3,2-d]thiazol-5-yl)-1,3,4-trimethylpyridin-2(1H)-one] | > 50 µM | 0.0411 µM | 0.0651 µM
3 | CCc1c(-c2cc(OC)c3ncnn3c2)[nH]c2sc(C3CCC(N4CC5(COC5)C4)CC3)nc12 (single isomer, unassigned) [Example 269, 6-(4-(6-ethyl-5-(8-methoxy-[1,2,4]triazolo[1,5-a]pyridin-6-yl)-4H-pyrrolo[3,2-d]thiazol-2-yl)cyclohexyl)-2-oxa-6-azaspiro[3.3]heptane] | 6.28 µM | 0.00431 µM | 0.00255 µM
4 | CCc1c(-c2cc(OC)c3ncnn3c2)[nH]c2sc(C3CCC(N4CC5(COC5)C4)CC3)nc12 (single isomer, unassigned) [Example 270, 6-(4-(6-ethyl-5-(8-methoxy-[1,2,4]triazolo[1,5-a]pyridin-6-yl)-4H-pyrrolo[3,2-d]thiazol-2-yl)cyclohexyl)-2-oxa-6-azaspiro[3.3]heptane] | 3.46 µM | 0.00899 µM | 0.014 µM
5 | CCc1c(-c2cc(OC)c3ncnn3c2)[nH]c2sc(C3CCC(NC4COC4)CC3)nc12 (single isomer, unassigned) [Example 271, N-(4-(6-ethyl-5-(8-methoxy-[1,2,4]triazolo[1,5-a]pyridin-6-yl)-4H-pyrrolo[3,2-d]thiazol-2-yl)cyclohexyl) oxetan-3-amine] | 4.56 µM | 0.00096 µM | 0.00194 µM
6 | CCc1c(-c2cc(OC)c3ncnn3c2)[nH]c2sc(C3CCC(NC4COC4)CC3)nc12 (single isomer, unassigned) [Example 272, N-(4-(6-ethyl-5-(8-methoxy-[1,2,4]triazolo[1,5-a]pyridin-6-yl)-4H-pyrrolo[3,2-d]thiazol-2-yl)cyclohexyl) oxetan-3-amine] | > 50 µM | 0.137 µM | 0.122 µM
7 | COc1cc(-c2[nH]c3sc(C4CCC(NC5COC5)CC4)nc3c2C)cn2ncnc12 (single isomer, unassigned) [Example 273, N-(4-(5-(8-methoxy-[1,2,4]triazolo[1,5-a]pyridin-6-yl)-6-methyl-4H-pyrrolo[3,2-d]thiazol-2-yl)cyclohexyl)oxetan-3-amine] | 5.55 µM | 0.0137 µM | 0.0265 µM
8 | COc1cc(-c2[nH]c3sc(C4CCC(N5CCNC(=O)C5)CC4)nc3c2C)cn2ncnc12 (single isomer, unassigned) [Example 275, 4-(4-(5-(8-methoxy-[1,2,4]triazolo[1,5-a]pyridin-6-yl)-6-methyl-4H-pyrrolo[3,2-d]thiazol-2-yl)cyclohexyl)piperazin-2-one] | > 50 µM | 0.413 µM | 0.515 µM
9 | COc1cc(-c2[nH]c3sc(C4CCC(N5CCNC(=O)C5)CC4)nc3c2C)cn2ncnc12 (single isomer, unassigned) [Example 276, 4-(4-(5-(8-methoxy-[1,2,4]triazolo[1,5-a]pyridin-6-yl)-6-methyl-4H-pyrrolo[3,2-d]thiazol-2-yl)cyclohexyl)piperazin-2-one] | > 50 µM | 0.975 µM | > 3.13 µM
10 | Cc1c(-c2[nH]c3sc(C(=O)NC4CCC(N(C)C)CC4)nc3c2C(C)C)cn2ncnc2c1C (single isomer, unassigned) [Example 368, 5-(7,8-dimethyl-[1,2,4]triazolo[1,5-a]pyridin-6-yl)-N-(4-(dimethylamino)cyclohexyl)-6-isopropyl-4H-pyrrolo[3,2-d]thiazole-2-carboxamide] | 5.46 µM | 0.0105 µM | 0.0281 µM
11 | Cc1c(-c2[nH]c3sc(C(=O)NC4CCC(N(C)C)CC4)nc3c2C(C)C)cn2ncnc2c1C (single isomer, unassigned) [Example 369, 5-(7,8-dimethyl-[1,2,4]triazolo[1,5-a]pyridin-6-yl)-N-(4-(dimethylamino)cyclohexyl)-6-isopropyl-4H-pyrrolo[3,2-d]thiazole-2-carboxamide] | 46.9 µM | 0.018 µM | 0.033 µM
12 | COc1cc(-c2[nH]c3sc(C4CCNCC4)nc3c2C(C)C)cn2ncnc12 [Example 1, 6-isopropyl-5-(8-methoxy-[1,2,4]triazolo[1,5-a]pyridin-6-yl)-2-(piperidin-4-yl)-4H-pyrrolo[3,2-d]thiazole] | 0.76 µM | 0.00201 µM | 0.00814 µM
